From publication PMC6661730, “Biochemical characterization of a novel exo-oligoxylanase from Paenibacillus barengoltzii suitable for monosaccharification from corncobs” (Biotechnology for Biofuels, 2019) come the findings set out here.

The target in the assay is T1, PbRex8 (Paenibacillus barengoltzii, UniProt R9L536).
T1 construct: gene C812_03928; full-length ORF, 382 residues (predicted 44 kDa), no signal peptide; N-terminal His6-tag from pET-28a(+) (NheI/XhoI), tag cleavage not mentioned; E. coli BL21(DE3); monomer; primers encode N-terminal MKEHQG and C-terminal RGEA
T1 sequence (R9L536 entry or part of it): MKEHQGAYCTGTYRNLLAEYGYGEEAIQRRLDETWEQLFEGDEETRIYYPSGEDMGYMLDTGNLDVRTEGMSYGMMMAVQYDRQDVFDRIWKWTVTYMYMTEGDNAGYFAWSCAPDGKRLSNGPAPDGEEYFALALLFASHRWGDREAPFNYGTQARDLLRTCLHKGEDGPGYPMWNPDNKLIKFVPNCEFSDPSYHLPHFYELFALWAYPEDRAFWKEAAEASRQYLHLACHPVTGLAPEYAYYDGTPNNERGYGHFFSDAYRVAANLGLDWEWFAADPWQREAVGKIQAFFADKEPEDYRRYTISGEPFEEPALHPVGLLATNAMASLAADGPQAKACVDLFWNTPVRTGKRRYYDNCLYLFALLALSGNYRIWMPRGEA
Description: HPLC-RID xylose release, nonlinear regression. Conditions: competitive; X3 as substrate, 5 mM citrate pH 5.5, 55 °C. The class given is biochemical.

Take `OC1OC[C@@H](O)[C@H](O)[C@H]1O` (stereo partly shown) [X, xylose]: the Ki is 12.9 ± 0.6 mM.
